Laboratory results taken from PMC5679075 (Nature, 2017).

Molecular target: T1, LepI (Aspergillus flavus, UniProt B8NJH3)
T1 sequence (B8NJH3 1-387): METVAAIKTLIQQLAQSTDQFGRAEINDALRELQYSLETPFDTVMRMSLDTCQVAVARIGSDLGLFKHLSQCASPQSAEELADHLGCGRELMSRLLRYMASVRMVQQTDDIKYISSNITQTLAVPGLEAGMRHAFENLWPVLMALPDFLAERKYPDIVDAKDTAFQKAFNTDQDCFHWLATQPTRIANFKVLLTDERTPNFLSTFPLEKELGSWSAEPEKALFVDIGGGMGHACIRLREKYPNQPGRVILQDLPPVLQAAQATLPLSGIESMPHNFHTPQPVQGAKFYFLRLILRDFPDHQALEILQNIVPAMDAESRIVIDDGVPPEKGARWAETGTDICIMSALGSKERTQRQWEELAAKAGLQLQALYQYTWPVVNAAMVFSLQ
Test: HPLC time course, inhibition of retro-Claisen rearrangement
Format: biochemical
Conditions: read-out: % inhibition at 250 μM

With Nc1ncnc2c1ncn2[C@@H]1O[C@H](CSCC[C@H](N)C(=O)O)[C@@H](O)[C@H]1O [SAH] the inhibition at 250 µM was over 90%.
